These results are taken from patent publication US20100069364A1, “SUBSTITUTED PYRAZOLINE COMPOUNDS WITH ACAT INHIBITION ACTIVITY, THEIR PREPARATION AND USE AS MEDICAMENTS” (LABORATORIOS DEL DR. ESTEVE, S.A., priority 2007, published 2010).

Read-outs that look alike come from different tables or passages of the source.

The target in experiment [1] is ACAT (Acyl CoA-Cholesterol Acyltransferase). To be noted: reported value for the reference compound; cited from earlier work.
For experiment [2], the target named is T1, ACAT (Acyl CoA-Cholesterol Acyltransferase).
T1 construct: other: 10^−4 M; rat hepatic microsomes; other: 3 × 10^−5 M; other: 10^−5 M; ot
Description: In-vitro determination of inhibition of ACAT in hepatic microsomes, [14C]-Palmitoyl CoA substrate. The format is biochemical, Wistar rats. To be noted: rat hepatic microsomes. How it is done: I. In-Vitro Determination of Inhibition of ACAT (Acyl CoA-Cholesterol Acyltransferase)
The in-vitro determination of the inhibition of the enzyme ACAT by the compounds of the invention is carried out in principle as described in the publication of Largis EE, Wang CH, DeVries VG and Schaffer SA (1989), “A Novel inhibitor of ACAT-catalyzed cholesterol esterification and cholesterol absorption”, J. Lipid Res. 30, 681-689, (1989), whereby hepatic microsomes are used. The radio-substrate used is [^14C]-Palmitoyl CoA. The respective parts of the description are hereby incorporated by reference and forms part of the present disclosure.
Briefly hepatic microsomes were prepared from the Wistar rats. Enzyme inhibition experiments were performed in presence of 18 μM [^14C]-Palmitoyl CoA as substrate. The vehicle used was 1% DMSO. Compounds to be tested were present at various concentrations and the incubation buffer used was 0.2 M Phosphate buffer, pH 7.4 at 25° C. After a 15 minutes preincubation period at 37° C. an incubation period of 10 minutes at 37° C. followed. Quantification of [^14C]Cholesterol ester was done by column chromatography.
The inhibition of the enzyme ACAT by the inventive substituted pyrazoline compounds was determined as described above.

Setting [3] is: second table (other experiment).
Where [4] appears, read: 3 × 10^−5 M, second table (other experiment).
[5] abbreviates: 3 × 10^−6 M, second table (other experiment).
Setting [6] is: 10^−4 M, second table (other experiment).
The mark [7] stands for this setting: 10^−5 M, second table (other experiment).

For the molecule `CC[C@H](C)C(=O)O[C@H]1C[C@@H](C)C=C2C=C[C@H](C)[C@H](CC[C@@H]3C[C@@H](O)CC(=O)O3)[C@H]21` [Lovastatin, reference compound], the IC50 in experiment [1] is 29 µM; in experiment [2] (first table) it was 22.7 µM; in experiment [2] (setting [3]), 12.5 µM.
As for `CC1(c2ccc(Cl)cc2)CC(C(=O)NC2CCCCCC2)=NN1c1ccc(Cl)cc1Cl` (stereo not shown) [Example 1, 5-(4-Chloro-phenyl)-1-(2,4-dichloro-phenyl)-5-methyl-4,5-dihydro-1H-pyrazole-3-carboxylic acid cycloheptylamide], the “ACAT Inhibition (%) at various concentration of example” value (from here on “ACAT Inhibition (%)”) in experiment [2] (3 × 10^−5 M, first table) is recorded as 54%; in experiment [2] (3 × 10^−6 M, first table), 14%; in experiment [2] (10^−4 M, first table), 62%; in experiment [2] (10^−5 M, first table), 46%; in experiment [2] (10^−6 M, first table), −1%. Also, the IC50 in experiment [2] (first table) turned out to be 27.5 µM.
In the case of `CC1(c2ccc(Cl)cc2)CC(C(=O)NN2CCCCC2)=NN1c1ccc(Cl)cc1Cl.Cl` (stereo not shown) [Example 3, 5-(4-Chloro-phenyl)-1-(2,4-dichloro-phenyl)-5-methyl-4,5-dihydro-1H-pyrazole-3-carboxylic acid piperidin-1-ylamide; hydrochloride], the “ACAT Inhibition (%)” value stood at 79% in experiment [2] (3 × 10^−5 M, first table); 85% in experiment [2] (setting [4]); 30% in experiment [2] (3 × 10^−6 M, first table); 34% in experiment [2] (setting [5]); 92% in experiment [2] (10^−4 M, first table); 98% in experiment [2] (setting [6]). Further, the “ACAT Inhibition (%)” value is 56% in experiment [2] (10^−5 M, first table); 62% in experiment [2] (setting [7]); 10% in experiment [2] (10^−6 M, first table). The values for the IC50 in experiment [2] (first table) and in experiment [2] (setting [3]) were 7.63 µM and 5.96 µM, respectively.
Turning to `CC1(c2ccc(Cl)cc2)CC(C(=O)NN2CCCCCC2)=NN1c1ccc(Cl)cc1Cl.Cl` (stereo not shown) [Example 2, 5-(4-Chloro-phenyl)-1-(2,4-dichloro-phenyl)-5-methyl-4,5-dihydro-1H-pyrazole-3-carboxylic acid azepan-1-ylamide; hydrochloride], the “ACAT Inhibition (%)” value in experiment [2] (3 × 10^−5 M, first table) came to 91%; in experiment [2] (setting [4]), 94%; in experiment [2] (3 × 10^−6 M, first table) it was 32%; in experiment [2] (setting [5]) it was 37%; in experiment [2] (3 × 10^−7 M, first table), 10%; in experiment [2] (setting [6]) it was 98%. Moreover, the “ACAT Inhibition (%)” value in experiment [2] (10^−5 M, first table) is 68%; in experiment [2] (setting [7]), 75%; in experiment [2] (10^−6 M, first table) it was 20%. Further, the IC50 is 4.93 µM in experiment [2] (first table) and 4.39 µM in experiment [2] (setting [3]).

Usually IC50 stands for the concentration that inhibits the measured activity by half.
